Converted amounts (≈) assume the structure as drawn. Bounds are passed on as bounds.

Data set [1] concerns Human Osteosarcoma TE418. In words: Cytotoxicity, human osteosarcoma TE418. The format is cell-based. The following applies: Osteosarcoma TE418, read-out: ED50 (cytotoxicity), Osteo sarcoma. The method, then:
5. Human Osteosarcoma TE418. H. Smith et al., Int. J. Cancer 17, 219 (1976) (grown in DMEM+10% FBS).
(§1) The cytotoxic screens were conducted according to NIH protocols, see E. Huang et al., J. Pharm. Sci. 61, 108 (1972), with 10^4 cells, growth medium, antibiotics and drugs from 0.5 to 100 μg/ml final concentration. For the L1210, Hela-S, amd Tmolt, (i.e. the suspended cells), the incubations were conducted in sterile test tubes in a final volume of 1 ml for 72 hr at 37° C. in a CO2 incubator. The cells on the third day were still in log growth phase. The number of cells/ml are determined using trypan blue exclusion and a hemocytometer. See, e.g., R. Geran, supra. For solid tumors there is plated out in wells 1×10^4 cells with 1 ml of medium+antibiotics and the other components of growth. When the controls have converged (≈95%) then the density of the cells is estimated and the ED50 values calculated.

Data set [2] has as its system KB epidermoid oral nesopharnyx. Briefly: Cytotoxicity, KB epidermoid oral nasopharynx. It is filed as cell-based. The following applies: Homo sapiens, read-out: ED50 (cytotoxicity), KB. Here is the method:
6. KB epidermoid oral nesopharnyx. R. Geran, supra: H. Eagle, Proc. Soc. Expt.
Biol. 89, 362 (1955)(grown in EMEM +5% calf serum).
as §1

Data set [3] concerns Lung bronchogenic MB-9812. Briefly: Cytotoxicity, lung bronchogenic MB-9812. The format is cell-based. The following applies: Lung bronchogenic MB-9812; read-out: ED50 (cytotoxicity), Lung Bronchogenic. Here is the method: 4. Lung bronchogenic MB-9812, S. Aronson et al., Expt. Cell Res. 61, 1 (1970) (grown in EMEM+10% FBS+NEAA).
as §1

The subject of data set [4] is Human glioma cell EH 118 MG. In words: Cytotoxicity, human glioma cell EH 118 MG. The format is cell-based. The following applies: Glioma EH 118 MG, read-out: ED50 (cytotoxicity), Glioma. The method, then: 9. Human glioma cell EH 118 MG transformed stain of Rous sarcoma virus, J. Lutton et al., J. Biol. Chem. 254, 11181 (1979) (grown in DMEM-H+10% FCS).
as §1

Data set [5] has as its system Tmolt acute lymphoblastic T cell leukemia. Briefly: Cytotoxicity, Tmolt acute lymphoblastic T cell leukemia. The format is cell-based. The following applies: for IC50: T-cell, Tmolt, 72 hr at 37° C., read-out: ED50 (cytotoxicity), Tmolt; for activity in T molt-3 screen: in words. The method, then: (§2) More specifically, the cytotoxic activity of the boron adducts of the present invention was tested on the following neoplastic cell lines:
2. Tmolt^S acute lymphoblastic T cell leukemia, S. Schreiber and N. Ikemoto, Tett. Lett 29, 3211 (1988) (grown in RPMI - 1640+10% FBS).
as §1

Data set [6] is described as follows: Stability in aqueous medium by HPLC. It is filed as physicochemical. The following applies: for stability in aqueous medium: in words; for remaining at 168 h: period of 168 h, read-out: stable in aqueous medium. The method, then: By HPLC, compounds 3a, 3b, and 3d in aqueous medium (0.01 M TEAAc) are >94% stable over a period of 168 h. […], however, is >50% decomposed during this period.

Data set [7] concerns inflammatory response. Briefly: Anti-inflammatory activity, carrageenan-injected hind foot. The following applies: 8 mg/kg/day; intraperitoneal, 3 hours and 30 minutes prior to carrageenan; mice. The format is in vivo, CF1 male mice. The method, then: CF1 male mice (~25 g) were administered test drugs at 5-40 mg/kg in 0.05% Tween 80--H2 O intraperitoneally 3 hours prior to and 30 minutes prior to the injection of 0.2 ml of 1% carrageenan in 0.9% saline into the plantar surface of the right hind foot. Saline was injected into the left hind foot, which serves as a base line. After 3 hours, both feet were excised at the tibiotarsal (ankle) joint according to standard procedures. See C. Winter et al., Proc. Soc. Expt. Biol Med. 544, 111 (1962); A. Roszkawski et al., J. Pharm. Exp. Ther. 179, 114 (1971). Control mice afforded a 78±3 mg increase in paw weight.

The subject of data set [8] is Hela-S. In words: Cytotoxicity, Hela-S cervical carcinoma suspended. It is filed as cell-based. The following applies: Homo sapiens; Hela-S; 72 hr at 37° C.; read-out: ED50 (cytotoxicity), Hela-S. Here is the method:
7. Hela-S, ATCC-CCL 2.2, cervical carcinoma suspended, S. Schreiber and N. Ikemoto, supra; T. Puck et al., J. Exp. Med. 103. 273 (1956) (grown in Joklik+5% FBS, Ham's F12 +5% FBS).
as §1

The subject of data set [9] is SW480 human colorectal carcinoma. In words: Cytotoxicity, colon adenocarcinoma SW480 human colorectal carcinoma. It is filed as cell-based. The following applies: for IC50: Homo sapiens, SW480, read-out: ED50 (cytotoxicity), Adeno Carcinoma SW480; for activity in human colorectal adenocarcinoma screen: in words. Here is the method: as §2
3. Colon adenocarcinoma SW480 human colorectal carcinoma. A. Leibovitz et al., Cancer Res. 36, 4562 (1976) (grown in L15+10% FBS).
as §1

Data set [10] deals with serum cholesterol levels. In words: Antihyperlipidemic activity, serum cholesterol. The format is in vivo, male CF1 mice. The following applies: 8 mg/kg/day; intraperitoneal for 16d; mice. Here is the method:
(§3) Compounds to be tested were suspended in 1% aqueous carboxymethylcellulose,homogenized and administered to male CF1 mice (25 g) intraperitoneally for 16d. On days 9 and 16, blood was obtained by tail vein bleeding, and the serum was separated by centrifugation for three minutes. The serum cholesterol levels were determined by a modification of the Liebermann--Burchard reaction in accordance with known techniques. See A. Ness, et al., Clin. Chim. Acta 10, 229 (1964). Serum triglyceride levels were determined with a commercial kit, the Fisher Hycel Triglyceride Test Kit, for a different group of animals bled on day 16.

Data set [11] has as its system L1210 lymphoid leukemia cells. In words: Cytotoxicity, L1210 lymphoid leukemia cells. The format is cell-based. The following applies: Mus musculus; L1210; 72 hr at 37° C.; read-out: ED50 (cytotoxicity), L1210. The method, then: as §2
1. L1210 lymphoid leukemia cells, R. Geran et al., Cancer Chemotherapy Reports 3, 7 (1972).(grown in RPMI+15% FBS+antibiotics).
as §1

For data set [12], the system named is Serum triglyceride levels. In words: Antihyperlipidemic activity, serum triglyceride. It is filed as in vivo, male CF1 mice. The following applies: 8 mg/kg/day; intraperitoneal, bled on day 16; mice. Here is the method:
as §3

The subject of data set [13] is P388. In words: Cytotoxicity, P388. It is filed as cell-based. The following applies: Mus musculus, P388; read-out: ED50 (cytotoxicity), P388. The method, then:
as §1

Take `N#C[BH2-][n+]1cnc2c(ncn2[C@H]2C[C@H](O)[C@@H](CO)O2)c1N` [Compound 3c, 2'-Deoxyadenosine-N1-cyanoborane]: the IC50 was 7.39 µg/mL (≈ 25.5 µM) in [1]; 3.12 µg/mL (≈ 10.8 µM) in [2]; 5.26 µg/mL (≈ 18.1 µM) in data set [3]; 6.88 µg/mL (≈ 23.7 µM) in data set [4]; 1.36 µg/mL (≈ 4.69 µM) in data set [5]; 2.35 µg/mL (≈ 8.1 µM) in [8]. In addition, the IC50 in data set [9] turned out to be 2.82 µg/mL (≈ 9.72 µM); in data set [11] it was 3.68 µg/mL (≈ 12.7 µM); in [13] it was 5.96 µg/mL (≈ 20.5 µM). Further, the “activity in T molt-3 screen” value in [5] is on record as “potent activity”. In addition, the “stability in aqueous medium” value in data set [6] is “good stability”. Besides, in [7], the “Antiinflammatory Activity, % inhibition” value is 22%. Further, the “activity in human colorectal adenocarcinoma screen” value in data set [9] is “potent activity”. In addition, in data set [10], the “Hypolipidemic: Cholesterol Inhibition, % inhibition” value was 44%. In addition, the “Hypolipidemic: Triglyceride Inhibition, % inhibition” value in [12] turned out to be 37%.
With `N#C[BH2-][n+]1c(N)ccn([C@H]2C[C@H](O)[C@@H](CO)O2)c1=O` [Compound 3d, 2' Deoxycytidine-N3-cyanoborane], the IC50 was 4.63 µg/mL (≈ 17.4 µM) in data set [1]; 5.46 µg/mL (≈ 20.5 µM) in [2]; 3.73 µg/mL (≈ 14 µM) in data set [3]; 4.39 µg/mL (≈ 16.5 µM) in data set [4]; 1.13 µg/mL (≈ 4.25 µM) in data set [5]; 3.37 µg/mL (≈ 12.7 µM) in data set [8]. Besides, the results for the IC50 in data set [9], in [11] and in [13] were 2.96 µg/mL (≈ 11.1 µM), 2.61 µg/mL (≈ 9.81 µM) and 3.17 µg/mL (≈ 11.9 µM), respectively. For the same compound, the “activity in T molt-3 screen” value in data set [5] is reported as “potent activity”. For the same compound, the remaining at 168 h in data set [6] (0.01 M TEAAc, HPLC) is more than 94%. For the same compound, in data set [6], the “stability in aqueous medium” value is on record as “good stability”. In addition, the “Antiinflammatory Activity, % inhibition” value in data set [7] worked out at 52%. Also, in [9], the “activity in human colorectal adenocarcinoma screen” value was “potent activity”. The “Hypolipidemic: Cholesterol Inhibition, % inhibition” value in [10] is listed as 38%. The “Hypolipidemic: Triglyceride Inhibition, % inhibition” value in [12] was 23%.
Regarding `N#C[BH2-][n+]1cn([C@H]2C[C@H](O)[C@@H](CO)O2)c2nc[nH]c(=O)c21` [Compound 3b, 2'-Deoxyinosine-N^7-cyanoborane], the IC50 in data set [1] is 7.28 µg/mL (≈ 25 µM); in [2], 3.45 µg/mL (≈ 11.9 µM); in [3], 4.93 µg/mL (≈ 16.9 µM); in data set [4] it was 8.49 µg/mL (≈ 29.2 µM); in data set [5] it was 1.73 µg/mL (≈ 5.94 µM); in data set [8] it was 2.41 µg/mL (≈ 8.28 µM). Besides, the IC50 in data set [9] came to 3.86 µg/mL (≈ 13.3 µM); in [11] it was 4 µg/mL (≈ 13.7 µM); in [13], 7.21 µg/mL (≈ 24.8 µM). The degraded at 168 h in [6] (0.01 M TEAAc, 168 h, HPLC, read-out: decomposed in aqueous medium) was more than 50%. Besides, the remaining at 168 h in [6] (0.01 M TEAAc, HPLC) was more than 94%. Besides, the “Antiinflammatory Activity, % inhibition” value in [7] is listed as 25%. The “Hypolipidemic: Cholesterol Inhibition, % inhibition” value in data set [10] was found to be 19%. Also, the “Hypolipidemic: Triglyceride Inhibition, % inhibition” value in data set [12] is reported as 30%.

Source of the values: patent US5130302A, “Boronated nucleoside, nucleotide and oligonucleotide compounds, compositions and methods for using same” (Boron Bilogicals, Inc., priority 1989, dated 1992).
